Where two headings read alike, the source gives them in different places. Marks after values point to notes of the source that are not given here.
Assays:
[1] = target: BoNT/A holotoxin (Clostridium botulinum, UniProt P0DPI1); test: cell-based
[2] = in vivo
[3] = system: healthy mice; conditions: mouse, in vivo; for Mice alive/Total mice: po, 160 mg/kg
[4] = system: BoNT/A holotoxin
[5] = system: CYP450 enzymes (CYP3A4, CYP2C19, CYP2D6); test: in vitro; conditions: human
[6] = target: HSA (Homo sapiens, UniProt P02768); conditions: pH 7.34
Chain of HSA (P02768 25-609): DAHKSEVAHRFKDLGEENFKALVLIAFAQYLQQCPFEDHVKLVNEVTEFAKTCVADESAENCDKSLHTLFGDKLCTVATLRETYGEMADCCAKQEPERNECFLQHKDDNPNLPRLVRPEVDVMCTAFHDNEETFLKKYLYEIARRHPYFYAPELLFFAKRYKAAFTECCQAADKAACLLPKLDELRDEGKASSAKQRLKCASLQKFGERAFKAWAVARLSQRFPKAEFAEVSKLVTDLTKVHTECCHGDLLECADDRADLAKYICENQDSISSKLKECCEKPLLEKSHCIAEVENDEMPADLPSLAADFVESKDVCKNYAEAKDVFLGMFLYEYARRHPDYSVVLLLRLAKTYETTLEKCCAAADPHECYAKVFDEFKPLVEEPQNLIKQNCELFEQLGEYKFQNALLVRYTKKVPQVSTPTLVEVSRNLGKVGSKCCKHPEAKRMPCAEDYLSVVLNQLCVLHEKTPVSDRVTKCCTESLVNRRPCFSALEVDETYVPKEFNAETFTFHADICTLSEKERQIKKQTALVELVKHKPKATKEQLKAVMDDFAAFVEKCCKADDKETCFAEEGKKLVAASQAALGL

[7] = system: AGP; conditions: pH 7.34
[8] = system: BoNT/A; conditions: mouse, in vivo; cited from earlier work
[9] = target: BoNT/A holotoxin (Clostridium botulinum, UniProt P0DPI0)
Chain of BoNT/A holotoxin (Clostridium botulinum, UniProt P0DPI0) (P0DPI0 2-1296 limits assumed): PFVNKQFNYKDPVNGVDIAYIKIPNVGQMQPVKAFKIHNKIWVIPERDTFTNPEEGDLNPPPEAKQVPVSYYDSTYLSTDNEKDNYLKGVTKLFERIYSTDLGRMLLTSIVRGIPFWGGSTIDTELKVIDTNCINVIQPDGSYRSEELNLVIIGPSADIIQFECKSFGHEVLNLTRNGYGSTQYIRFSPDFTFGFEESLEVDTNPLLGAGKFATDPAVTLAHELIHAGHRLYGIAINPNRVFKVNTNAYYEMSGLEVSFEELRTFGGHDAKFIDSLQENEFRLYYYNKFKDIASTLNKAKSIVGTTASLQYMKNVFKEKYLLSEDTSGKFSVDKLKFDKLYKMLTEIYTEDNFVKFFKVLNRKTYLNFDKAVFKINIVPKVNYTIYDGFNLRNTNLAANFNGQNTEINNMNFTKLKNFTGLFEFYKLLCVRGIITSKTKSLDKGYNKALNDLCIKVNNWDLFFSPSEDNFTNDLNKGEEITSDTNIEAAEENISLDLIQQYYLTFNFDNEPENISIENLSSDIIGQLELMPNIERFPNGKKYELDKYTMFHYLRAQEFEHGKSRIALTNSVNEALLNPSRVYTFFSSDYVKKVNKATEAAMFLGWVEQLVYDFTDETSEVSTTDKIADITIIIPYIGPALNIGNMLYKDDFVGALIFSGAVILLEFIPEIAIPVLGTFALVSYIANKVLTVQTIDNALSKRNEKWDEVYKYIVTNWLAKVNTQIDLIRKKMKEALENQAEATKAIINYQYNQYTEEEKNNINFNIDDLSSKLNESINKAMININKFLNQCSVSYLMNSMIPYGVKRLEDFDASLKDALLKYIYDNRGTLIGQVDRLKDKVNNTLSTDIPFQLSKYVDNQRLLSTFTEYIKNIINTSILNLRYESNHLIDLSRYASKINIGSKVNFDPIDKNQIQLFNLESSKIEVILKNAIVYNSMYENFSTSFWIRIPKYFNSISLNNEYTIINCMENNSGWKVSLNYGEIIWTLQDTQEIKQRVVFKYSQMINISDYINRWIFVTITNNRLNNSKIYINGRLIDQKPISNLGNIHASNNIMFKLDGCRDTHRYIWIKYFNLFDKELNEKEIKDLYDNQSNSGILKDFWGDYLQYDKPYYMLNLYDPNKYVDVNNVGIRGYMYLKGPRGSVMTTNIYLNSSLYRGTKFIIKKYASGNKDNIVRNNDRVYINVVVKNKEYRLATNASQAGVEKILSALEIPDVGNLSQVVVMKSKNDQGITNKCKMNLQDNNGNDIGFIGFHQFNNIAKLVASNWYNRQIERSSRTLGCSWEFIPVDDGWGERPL

Chain of BoNT/A holotoxin (Clostridium botulinum, UniProt P0DPI1) (P0DPI1 2-448 limits assumed): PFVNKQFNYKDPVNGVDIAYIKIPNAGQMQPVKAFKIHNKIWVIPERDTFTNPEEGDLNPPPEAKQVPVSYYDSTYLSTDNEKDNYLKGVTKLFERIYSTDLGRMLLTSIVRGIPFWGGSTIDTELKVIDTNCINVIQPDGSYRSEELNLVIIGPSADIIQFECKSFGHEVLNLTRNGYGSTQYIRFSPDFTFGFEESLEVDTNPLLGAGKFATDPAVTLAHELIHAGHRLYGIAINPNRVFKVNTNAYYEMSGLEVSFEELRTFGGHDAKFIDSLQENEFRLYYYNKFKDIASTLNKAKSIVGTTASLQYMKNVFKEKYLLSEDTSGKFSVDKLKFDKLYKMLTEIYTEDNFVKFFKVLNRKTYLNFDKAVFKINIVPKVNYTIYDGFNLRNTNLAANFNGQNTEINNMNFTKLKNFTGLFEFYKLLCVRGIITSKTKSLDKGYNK

CC(=O)O[C@H]1C[C@H]2[C@@H]([C@H](OC(C)=O)C[C@@H]3C[C@H](N)CC[C@@]32C)[C@@H]2CC[C@H]([C@H](C)CCCNCCCC(C)Nc3ccnc4ccccc34)[C@@]12C (stereo partly drawn) [Compound 17]
% of full length SNAP-25, mES-MNs pre intoxication ([1]; 10 μM): 67; 69%
% of full length SNAP-25, mES-MNs pre intoxication ([1]; 20 μM): 67; 69%
exp LogD (pH 1): 2.28 (pH=1)

C[C@H](CCCNCCCCNc1ccnc2cc(Cl)ccc12)[C@H]1CC[C@H]2[C@@H]3[C@H](O)C[C@@H]4C[C@H](N)CC[C@]4(C)[C@H]3C[C@H](O)[C@]12C [Compound 24]
IC50 [1]: 8 to 16 µM
% of full length SNAP-25, mES-MNs pre intoxication ([1]; 8 μM): 46; 58 ^e %
% of full length SNAP-25, mES-MNs pre intoxication ([1]; 16 μM): 46; 58 ^e %
exp LogD (pH 1): 2.97 (pH=1)
detection as metabolite in mouse samples after oral 16 [2]: None of these metabolites were detected

CC(=O)O[C@H]1C[C@H]2[C@@H]([C@H](OC(C)=O)C[C@@H]3C[C@H](N)CC[C@@]32C)[C@@H]2CC[C@H]([C@H](C)CCCN(C)CCCCNc3ccnc4ccccc34)[C@@]12C [Compound 15]
% of full length SNAP-25, mES-MNs pre intoxication ([1]; 10 μM): 70; 69%
% of full length SNAP-25, mES-MNs pre intoxication ([1]; 20 μM): 70; 69%
exp LogD (pH 1): 2.11 (pH=1)

CC(CCN(C)CC12CC3CC(CC(C3)C1)C2)Nc1ccnc2cc(Cl)ccc12 (stereo not drawn) [Compound 60]
IC50 [1]: < 10 µM
protection of SNAP-25, pre-exposure dose-response experiment [1]: 90%
% of full length SNAP-25, mES-MNs pre intoxication ([1]; 10 μM): 63; 72%
% of full length SNAP-25, mES-MNs pre intoxication ([1]; 20 μM): 63; 72%
Mice alive/Total mice [3]: 3/5
exp LogD (pH 10): 3.47 (pH=10)

CC(CCCNCc1ccc(-c2csc3ccc(C#N)cc23)cc1)Nc1ccnc2ccccc12 (stereo not drawn) [Compound 36]
% of full length SNAP-25, mES-MNs pre intoxication ([1]; 10 μM): 34; 53%
% of full length SNAP-25, mES-MNs pre intoxication ([1]; 20 μM): 34; 53%
exp LogD (pH 10): 3.67 (pH=10)

N#Cc1ccc(-c2ccc(-c3ccc(CNCCCCNc4ccnc5ccccc45)cc3)s2)cc1 [Compound 101]
% of full length SNAP-25, mES-MNs pre intoxication ([1]; 10 μM): 18; 39%
% of full length SNAP-25, mES-MNs pre intoxication ([1]; 20 μM): 18; 39%
exp LogD (pH 1): 2.93 (pH=1)

CC(CCNCCC12CC3CC(CC(C3)C1)C2)Nc1c(F)cnc2ccccc12 (stereo not drawn) [Compound 106]
% of full length SNAP-25, mES-MNs pre intoxication ([1]; 10 μM): 30; 32%
% of full length SNAP-25, mES-MNs pre intoxication ([1]; 20 μM): 30; 32%
exp LogD (pH 10): 4.13 (pH=10)

CC(=O)O[C@H]1C[C@H]2[C@@H]([C@H](OC(C)=O)C[C@@H]3C[C@H](N)CC[C@@]32C)[C@@H]2CC[C@H]([C@H](C)CCCNCCCCNc3ccnc4ccccc34)[C@@]12C [Compound 14]
IC50 [1]: 10 to 20 µM
% of full length SNAP-25, mES-MNs pre intoxication ([1]; 10 μM): 28; 67%
% of full length SNAP-25, mES-MNs pre intoxication ([1]; 20 μM): 28; 67%
exp LogD (pH 1): 2.14 (pH=1)

CN(CCCCCCCCNc1ccnc2ccccc12)Cc1ccc(-c2ccc(-c3ccc(C#N)cc3)s2)cc1 [Compound 96]
% of full length SNAP-25, mES-MNs pre intoxication [1]: 54; 60%
IC50 [1]: 5 to 10 µM
Mice alive/Total mice [3]: 5/5
exp LogD (pH 1): 3.33 (pH=1)

CC(=O)O[C@H]1C[C@H]2[C@@H]([C@H](OC(C)=O)C[C@@H]3C[C@H](N)CC[C@@]32C)[C@@H]2CC[C@H]([C@H](C)CCCNC(C)CCCNc3ccnc4ccccc34)[C@@]12C (stereo partly drawn) [Compound 19]
% of full length SNAP-25, mES-MNs pre intoxication ([1]; 10 μM): 86; 87%
% of full length SNAP-25, mES-MNs pre intoxication ([1]; 20 μM): 86; 87%
Mice alive/Total mice [3]: 3/5
exp LogD (pH 1): 2.21 (pH=1)

CC(CCCNc1ccnc2ccccc12)NCc1ccc(-c2csc3ccc(F)cc23)cc1 (stereo not drawn) [Compound 34]
% of full length SNAP-25, mES-MNs pre intoxication [1]: 58; 68%
IC50 [1]: 10 to 20 µM
Mice alive/Total mice [3]: 5/5
exp LogD (pH 10): 3.85 (pH=10)

CC(CCCNCc1ccc(-c2csc3ccc(F)cc23)cc1)Nc1ccnc2ccccc12 (stereo not drawn) [Compound 91]
% of full length SNAP-25, mES-MNs pre intoxication [1]: 62; 62%
exp LogD (pH 10): 3.98 (pH=10)

N#Cc1ccc2scc(-c3ccc(CNCCCCNc4ccnc5ccccc45)cc3)c2c1 [Compound 86]
% of full length SNAP-25, mES-MNs pre intoxication ([1]; 10 μM): 21; 26%
% of full length SNAP-25, mES-MNs pre intoxication ([1]; 20 μM): 21; 26%
exp LogD (pH 10): 3.67 (pH=10)

N#Cc1ccc2scc(-c3ccc(CNCCCCCCNc4ccnc5ccccc45)cc3)c2c1 [Compound 87]
% of full length SNAP-25, mES-MNs pre intoxication ([1]; 10 μM): 36; 43%
% of full length SNAP-25, mES-MNs pre intoxication ([1]; 20 μM): 36; 43%
exp LogD (pH 10): 3.85 (pH=10)

CC(CCN(C)CC12CC3CC(CC(C3)C1)C2)Nc1ccnc2ccccc12 (stereo not drawn) [Compound 85]
% of full length SNAP-25, mES-MNs pre intoxication [1]: 47; 46%

CC(CCNCCC12CC3CC(CC(C3)C1)C2)Nc1c(F)cnc2cc(Cl)ccc12 (stereo not drawn) [Compound 103]
% of full length SNAP-25, mES-MNs pre intoxication ([1]; 10 μM): 30; 29%
% of full length SNAP-25, mES-MNs pre intoxication ([1]; 20 μM): 30; 29%
exp LogD (pH 10): 4.33 (pH=10)

CC(=O)O[C@H]1C[C@H]2[C@@H]([C@H](OC(C)=O)C[C@@H]3C[C@H](N)CC[C@@]32C)[C@@H]2CC[C@H]([C@H](C)CCCNCCCCNc3ccnc4cc(Cl)ccc34)[C@@]12C [Compound 16]
% of full length SNAP-25, mES-MNs pre intoxication [1]: 72; 88%
host toxicity, single oral dose [3]: non-toxic
Mice alive/Total mice [3]: 5/5
toxicity in mES-MNs (GAPDH loading control levels lower) [4]: potential toxicity
IC50 [5]: 1 to 10 µM
exp LogD (pH 1): 2.55 (pH=1); 2.07 (pH=7.3) ^d
Ksv for HSA [6]: (4.56±0.27)×10^4
Ksv for AGP [7]: (6.99±0.25)×10^5
time Tc > 3μM ([2]; mouse): >45 min

N#Cc1ccc(-c2ccc(-c3cccc(CNCCCCCCNc4ccnc5ccccc45)c3)s2)cc1 [Compound 50]
% of full length SNAP-25, mES-MNs pre intoxication ([1]; 10 μM): 46; 71%
% of full length SNAP-25, mES-MNs pre intoxication ([1]; 20 μM): 46; 71%
exp LogD (pH 1): 3.08 (pH=1)

CC(CCNCC12CC3CC(CC(C3)C1)C2)Nc1c(F)cnc2ccccc12 (stereo not drawn) [Compound 105]
% of full length SNAP-25, mES-MNs pre intoxication ([1]; 10 μM): 24; 23%
% of full length SNAP-25, mES-MNs pre intoxication ([1]; 20 μM): 24; 23%
exp LogD (pH 10): 3.09 (pH=10)

O=C(CS)Nc1cc(-c2ccc(F)cc2)n[nH]1 [ABS 252, N-(3-(4-fluorophenyl)-1H pyrazol-5 yl)-2-mercaptoacetamide]
survival of BoNT intoxicated mice [8]: effective in extending survival

N#Cc1ccc(-c2ccc(-c3ccc(CNCCCCCCNc4ccnc5ccccc45)cc3)s2)cc1 [Compound 46]
% of full length SNAP-25, mES-MNs pre intoxication ([1]; 10 μM): 22; 48%
% of full length SNAP-25, mES-MNs pre intoxication ([1]; 20 μM): 22; 48%
exp LogD (pH 1): 3.08 (pH=1)

N#Cc1ccc(-c2ccc(-c3ccc(CNCCCCCCCCNc4ccnc5ccccc45)cc3)s2)cc1 [Compound 93]
% of full length SNAP-25, mES-MNs pre intoxication [1]: 31; 70%
Mice alive/Total mice [3]: 5/5
exp LogD (pH 1): 3.42 (pH=1)

CC(CCNc1ccnc2cc(Cl)ccc12)NCC12CC3CC(CC(C3)C1)C2 (stereo not drawn) [Compound 102]
% of full length SNAP-25, mES-MNs pre intoxication ([1]; 10 μM): 29; 30%
% of full length SNAP-25, mES-MNs pre intoxication ([1]; 20 μM): 29; 30%
exp LogD (pH 10): 3.40 (pH=10)

CC(CCNCC12CC3CC(CC(C3)C1)C2)Nc1c(F)cnc2cc(Cl)ccc12 (stereo not drawn) [Compound 104]
% of full length SNAP-25, mES-MNs pre intoxication ([1]; 10 μM): 31; 35%
% of full length SNAP-25, mES-MNs pre intoxication ([1]; 20 μM): 31; 35%
exp LogD (pH 10): 3.24 (pH=10)

CC(=O)O[C@H]1C[C@H]2[C@@H]([C@H](OC(C)=O)C[C@@H]3C[C@H](NCCCCCCNc4ccnc5cc(Cl)ccc45)CC[C@@]32C)[C@@H]2CC[C@H]([C@H](C)CCCNCCCCCCNc3ccnc4cc(Cl)ccc34)[C@@]12C [Compound 1, reference compound]
IC50 [1]: < 10 µM
% of full length SNAP-25, mES-MNs pre intoxication ([1]; 10 μM): 70; 84%
% of full length SNAP-25, mES-MNs pre intoxication ([1]; 20 μM): 70; 84%
% of full length SNAP-25, mES-MNs post intoxication [9]: 36; 20%

CC(CCNc1ccnc2ccccc12)NCCC12CC3CC(CC(C3)C1)C2 (stereo not drawn) [Compound 81]
% of full length SNAP-25, mES-MNs pre intoxication ([1]; 10 μM): 23; 24%
% of full length SNAP-25, mES-MNs pre intoxication ([1]; 20 μM): 23; 24%

CC(=O)O[C@H]1C[C@H]2[C@@H]([C@H](OC(C)=O)C[C@@H]3C[C@H](N)CC[C@@]32C)[C@@H]2CC[C@H]([C@H](C)CCCN(C)CCCC(C)Nc3ccnc4ccccc34)[C@@]12C (stereo partly drawn) [Compound 18]
% of full length SNAP-25, mES-MNs pre intoxication [1]: 20; 41%
exp LogD (pH 1): 2.38 (pH=1)

CN(CCCNc1ccnc2ccccc12)CC12CC3CC(CC(C3)C1)C2 [Compound 68]
% of full length SNAP-25, mES-MNs pre intoxication ([1]; 10 μM): 30; 31%
% of full length SNAP-25, mES-MNs pre intoxication ([1]; 20 μM): 30; 31%

CN(CCCCNc1ccnc2ccccc12)Cc1ccc(-c2csc3ccc(F)cc23)cc1 [Compound 37]
% of full length SNAP-25, mES-MNs pre intoxication ([1]; 10 μM): 44; 55%
% of full length SNAP-25, mES-MNs pre intoxication ([1]; 20 μM): 44; 55%
exp LogD (pH 10): 3.98 (pH=10)

CC(CCCN(C)Cc1ccc(-c2csc3ccc(C#N)cc23)cc1)Nc1ccnc2ccccc12 (stereo not drawn) [Compound 38]
% of full length SNAP-25, mES-MNs pre intoxication [1]: 59; 64%
IC50 [1]: 10 to 20 µM
exp LogD (pH 10): 3.42 (pH=10)

CN(CCCNc1ccnc2cc(Cl)ccc12)CC12CC3CC(CC(C3)C1)C2 [Compound 57]
% of full length SNAP-25, mES-MNs pre intoxication ([1]; 10 μM): 51; 56%
% of full length SNAP-25, mES-MNs pre intoxication ([1]; 20 μM): 51; 56%
Mice alive/Total mice [3]: 4/5
exp LogD (pH 10): 3.24 (pH=10)

Reference: PMC5833296 (Journal of medicinal chemistry, 2018)
